Assay: Tissue distribution of radioactivity by Quantitative Whole-Body Autoradiography (QWBA), Group 4
Type: in vivo
Conditions: rat
Description: A study was conducted to determine the pharmacokinetics, rates and routes of excretion with mass baseline and tissue distribution of radioactivity, after a single intravenous dose administration of formula XIII (also referred to as [^14C]DAP) was administered to the rats by tail vein intravenous injection at a
The study was conducted on 19 male rats divided into 4 groups. The first group of 6 rats was used for blood collection (Group 1); the second group of 4 rats was used for urine, feces, cage rinses and wipes and carcasses collection (Group 2); the third group of 4 rats was used for expired air collection (Group 3); the fourth group of 5 rats was used for terminal blood/serum and tissue distribution by Quantitative Whole-Body Autoradiography (QWBA) (Group 4).
For Group 4, formula XIII (QWBA was run at 1, 8, 12, 24 and 72 hours post dose. After terminal blood collection, each euthanized animal was frozen in a hexane/dry ice bath and embedded in a 2% carboxymethylcellulose matrix according to MPI Research SOP ADME-112. The embedded carcasses were sectioned according to MPI Research SOP ADME-113 on a Leica CM3600 Cyromacrotome set to maintain −10 to −30° C. At least four fortified quality control standards of known radioactive concentration were placed into the frozen block prior to sectioning and used for section thickness quality control. The quality control standards were sectioned under the same conditions as the specimen. The intrasection and intersection variation of collected sections were determined by analyzing the quality control standards. Section variation must be less than 20% for quantitative analysis. Sections that were approximately 40μm thick were taken in the sagittal plane. Appropriate sections selected at various levels of interest in the block were collected to encompass the following tissues, organs, and biological fluids, where possible: adrenal gland, bladder (urinary) and contents (urine), blood (cardiac), bone, bone marrow, brain, eye, fat (brown), fat (white), heart, kidney, large intestine/cecum and contents, liver, lung, muscle, pancreas, prostate, salivary glands, skin, small intestine and contents, spleen, stomach and contents, testes, thymus, thyroid, mesenteric lymph nodes, and epididymis. A set of sections were mounted, exposed to phosphor imaging screens and scanned using the Storm 860 image acquisition system according to MPI Research SOP ADME-112. Quantification, relative to the calibration standards, were performed by image densitometry using MCID™ image analysis software according to MPI Research SOP ADME-114. A standard curve was constructed from the integrated response (MDC/mm2) and the nominal concentrations of the [^14C]Glucose calibration standards. Relative error should be less than 0.5 for each point on the curve. The concentrations of radioactivity were expressed as μCi/g and were converted to μg or ng-equivalents of DAP per gram of sample (μg- or ng-eq/g) using the specific activity of administered [^14C]DAP dose formulation. A lower limit of quantification (LLOQ) was applied to the data. The LLOQ was determined using the radioactive concentration of the lowest calibration standard used to generate a calibration curve divided by the specific activity of the dose formulation (μCi/ug). Artifacts, such as those produced by dislodged contents of the alimentary canal, were excluded from analysis during image analysis.

## [2H]C1([2H])N(CCCNC(=O)[C@@H](N)CCCNC(=N)N)C([2H])([2H])C([2H])([2H])N(CCCNC(=O)[C@@H](N)CCCNC(=N)N)C1([2H])[2H] [formula XIII]
1 hour post dose, FIG. 1
  distribution to cartilage and tissues (autoradiograph): distribute very well to cartilage and tissues
After 8 hours, FIG. 2
  localization in cartilage and tissues (autoradiograph): no longer localized in all of the regions identifiable in FIG. 1
Single IV 2 mg/kg, 1 Hour
  Concentration of Radioactivity in Bone marrow: 6820 ng Equivalents [^14C]DAP/g
  Concentration of Radioactivity in Cartilage: 62602 ng Equivalents [^14C]DAP/g
  Concentration of Radioactivity in Kidney: 51966 ng Equivalents [^14C]DAP/g
  Concentration of Radioactivity in Kidney (cortex): 55358 ng Equivalents [^14C]DAP/g
  Concentration of Radioactivity in Kidney (medulla): 19308 ng Equivalents [^14C]DAP/g
  Concentration of Radioactivity in Large intestinal contents: BLQ (Below limit of quantitation (<172 ng equivalents [^14C]PER977/g))
  Concentration of Radioactivity in Liver: 6377 ng Equivalents [^14C]DAP/g
  Concentration of Radioactivity in Small intestine: 6838 ng Equivalents [^14C]DAP/g
  Concentration of Radioactivity in Thymus: 10420 ng Equivalents [^14C]DAP/g
  Concentration of Radioactivity in Urinary bladder: 26725 ng Equivalents [^14C]DAP/g
  Concentration of Radioactivity in Urine: 195176 ng Equivalents [^14C]DAP/g
Single IV 2 mg/kg, 8 Hours
  Concentration of Radioactivity in Bone marrow: 5524 ng Equivalents [^14C]DAP/g
  Concentration of Radioactivity in Cartilage: 13038 ng Equivalents [^14C]DAP/g
  Concentration of Radioactivity in Kidney: 43380 ng Equivalents [^14C]DAP/g
  Concentration of Radioactivity in Kidney (cortex): 45541 ng Equivalents [^14C]DAP/g
  Concentration of Radioactivity in Kidney (medulla): 3454 ng Equivalents [^14C]DAP/g
  Concentration of Radioactivity in Large intestinal contents: 510 ng Equivalents [^14C]DAP/g
  Concentration of Radioactivity in Liver: 3150 ng Equivalents [^14C]DAP/g
  Concentration of Radioactivity in Small intestine: 6643 ng Equivalents [^14C]DAP/g
  Concentration of Radioactivity in Thymus: 15093 ng Equivalents [^14C]DAP/g
  Concentration of Radioactivity in Urinary bladder: 1429 ng Equivalents [^14C]DAP/g
  Concentration of Radioactivity in Urine: 8374 ng Equivalents [^14C]DAP/g
Single IV 2 mg/kg, 12 Hours
  Concentration of Radioactivity in Bone marrow: 4948 ng Equivalents [^14C]DAP/g
  Concentration of Radioactivity in Cartilage: 7749 ng Equivalents [^14C]DAP/g
  Concentration of Radioactivity in Cerebellum: BLQ (Below limit of quantitation (<172 ng equivalents [^14C]PER977/g))
  Concentration of Radioactivity in Cerebrum: BLQ (Below limit of quantitation (<172 ng equivalents [^14C]PER977/g))
  Concentration of Radioactivity in Gastric mucosa: 2118 ng Equivalents [^14C]DAP/g
  Concentration of Radioactivity in Kidney: 40930 ng Equivalents [^14C]DAP/g
  Concentration of Radioactivity in Kidney (cortex): 48959 ng Equivalents [^14C]DAP/g
  Concentration of Radioactivity in Kidney (medulla): 2981 ng Equivalents [^14C]DAP/g
  Concentration of Radioactivity in Large intestinal contents: 4752 ng Equivalents [^14C]DAP/g
  Concentration of Radioactivity in Liver: 3330 ng Equivalents [^14C]DAP/g
  Concentration of Radioactivity in Medulla: BLQ (Below limit of quantitation (<172 ng equivalents [^14C]PER977/g))
  Concentration of Radioactivity in Small intestine: 9975 ng Equivalents [^14C]DAP/g
  Concentration of Radioactivity in Spinal cord: BLQ (Below limit of quantitation (<172 ng equivalents [^14C]PER977/g))
  Concentration of Radioactivity in Stomach contents: BLQ (Below limit of quantitation (<172 ng equivalents [^14C]PER977/g))
  Concentration of Radioactivity in Thymus: 14584 ng Equivalents [^14C]DAP/g
  Concentration of Radioactivity in Urinary bladder: 1095 ng Equivalents [^14C]DAP/g

Reference: patent publication US9999690B2, “Labeled compounds and methods of imaging, diagnosing cartilage disorders and diseases, and monitoring cartilage health using labeled and unlabeled compounds” (Perosphere Inc., priority 2013, dated 2018)
